The source of these data is patent publication US8192949B2, “Microaggregates including endothelial cells” (priority 2005, dated 2012).

For assay [1], the system named is capillary-associated cells (mostly endothelial cells) in neuroendocrine (pulmonary carcinoid) tumor microclusters. In words: In situ microcapillary viability assay (ISMCVA), fast green/H&E dye exclusion on tumor microclusters. Type of assay: cell-based, human. The following applies: microclusters cultured for 96 hours in presence of bevacizumab; FIGS. 3B and 4B. As for the experimental part: (§1) Solid tumors are minced to pieces smaller than 1 mm (small enough to be aspirated into a standard disposable 10 ml pipette) with high quality curved surgical scissors. Medium in which said tumors may have been transported is reserved, along with the supernatant from the tissue mince. Scissor-minced tumor pieces are digested with collagenase/DNase in RPMI-1640 containing antibiotics and 10% fetal calf serum. Specimens are digested in 50 ml disposable polypropylene centrifuge tubes, assisted by gentle mixing with plastic-coated, magnetic stirring bars over a stirring plate. Specimens are thusly mixed until complete gross digestion has taken place—typically about 2-3 hours for a 1-3 gram specimen. […]
(§2) Viable microaggregates are enriched from medium containing a mixture of microclusters that exist in the minced, digested tissue along with single cells, normal cells, red blood cells, dead cells, and debris by means of “quickspins.” Quickspins consist of repeated very brief centrifugations at 50-500×g, in which the centrifuge tube is first mixed by moderate hand-shaking, placed in a standard, room temperature, preparatory centrifuge, and then accelerated to the desired speed (determined for each centrifuge by empiric trials) and then immediately turned off once the centrifuge has reached the desired speed and then allowed to coast to a stop. […]

Assay [2] relates to tumor cells in neuroendocrine (pulmonary carcinoid) tumor microclusters. Described as above. It is filed as cell-based, human. The settings on record: microclusters cultured for 96 hours in presence of bevacizumab; FIGS. 3B and 4B. As for the experimental part: as §1, §2

In the case of bevacizumab, the “viability of capillary-associated cells (fast green staining)” value in assay [1] is “most capillary-associated cells are dead”. For the same substance, in assay [2], the “viability of tumor cells (fast green / H/E staining)” value is on record as “tumor cells remain viable”.
